Measured values taken from the supplement of paper PMC10307832.

How the values were obtained:
Test in all cases: relative viability (nuclei count vs DMSO), 5 days (fraction); higher = more cells survive
Axitinib + Olaparib = compound: CNC(=O)c1ccccc1Sc1ccc2c(/C=C/c3ccccn3)n[nH]c2c1 [Axitinib] + O=C(c1cc(Cc2n[nH]c(=O)c3ccccc23)ccc1F)N1CCN(C(=O)C2CC2)CC1 [Olaparib] (partner 8 µM)
Procedure, shortened: (§1)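 Five library-drug doses in √10 steps were combined with a fixed anchor-drug dose, or a single drug was given alone, by pin tool to lung cancer cell lines in 1536-well plates the day after seeding. Nuclei were stained and counted after 5 days. Relative viability is the nuclei count in treated wells over that in vehicle wells, taken as the median of duplicate plates.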

Bemcentinib + Decitabine = compound: Nc1nc(Nc2ccc3c(c2)CC[C@@H](N2CCCC2)CC3)nn1-c1cc2c(nn1)-c1ccccc1CCC2 [Bemcentinib] + Nc1ncn([C@H]2C[C@H](O)[C@@H](CO)O2)c(=O)n1 [Decitabine] (partner 2 µM)
Procedure, shortened: as §1

Bemcentinib + Lapatinib = compound: Nc1nc(Nc2ccc3c(c2)CC[C@@H](N2CCCC2)CC3)nn1-c1cc2c(nn1)-c1ccccc1CCC2 [Bemcentinib] + CS(=O)(=O)CCNCc1ccc(-c2ccc3ncnc(Nc4ccc(OCc5cccc(F)c5)c(Cl)c4)c3c2)o1 [Lapatinib] (partner 2 µM)
Procedure, shortened: as §1

Axitinib + Luminespib = compound: CNC(=O)c1ccccc1Sc1ccc2c(/C=C/c3ccccn3)n[nH]c2c1 [Axitinib] + CCNC(=O)c1noc(-c2cc(C(C)C)c(O)cc2O)c1-c1ccc(CN2CCOCC2)cc1 [Luminespib] (partner 0.01 µM)
Procedure, shortened: as §1

Cell Line | relative viability (Axitinib + Olaparib; first compound 0.005 µM) | relative viability (Axitinib + Olaparib; first compound 0.01581 µM) | relative viability (Axitinib + Olaparib; first compound 0.05 µM) | relative viability (Axitinib + Olaparib; first compound 0.1581 µM) | relative viability (Axitinib + Olaparib; first compound 0.5 µM) | relative viability (Bemcentinib + Decitabine; first compound 0.04 µM) | relative viability (Bemcentinib + Decitabine; first compound 0.1265 µM) | relative viability (Bemcentinib + Decitabine; first compound 0.4 µM) | relative viability (Bemcentinib + Decitabine; first compound 1.265 µM) | relative viability (Bemcentinib + Decitabine; first compound 4 µM) | relative viability (Bemcentinib + Lapatinib; first compound 0.04 µM) | relative viability (Bemcentinib + Lapatinib; first compound 0.1265 µM) | relative viability (Bemcentinib + Lapatinib; first compound 0.4 µM) | relative viability (Bemcentinib + Lapatinib; first compound 1.265 µM) | relative viability (Bemcentinib + Lapatinib; first compound 4 µM) | relative viability (Axitinib + Luminespib; first compound 0.005 µM) | relative viability (Axitinib + Luminespib; first compound 0.01581 µM) | relative viability (Axitinib + Luminespib; first compound 0.05 µM) | relative viability (Axitinib + Luminespib; first compound 0.1581 µM) | relative viability (Axitinib + Luminespib; first compound 0.5 µM)
LXF-289 | 1.11 | 1.03 | 1.05 | 0.982 | 1 | 0.431 | 0.323 | 0.417 | 0.398 | 0.364 | 0.887 | 0.908 | 0.988 | 0.972 | 0.924 | 0.69 | 0.721 | 0.659 | 0.573 | 0.781
NCI-H23 | 0.284 | 0.331 | 0.334 | 0.285 | 0.312 | 0.305 | 0.302 | 0.297 | 0.31 | 0.328 | 0.966 | 1.28 | 1.32 | 1.19 | 1.1 | 0.21 | – | 0.233 | 0.231 | 0.219
NCI-H322M | 0.965 | 0.849 | 0.753 | 0.724 | 1.06 | 0.686 | 0.731 | 0.716 | 0.841 | 0.704 | 0.576 | 0.635 | 0.574 | 0.645 | 0.611 | 1.06 | 0.845 | 0.833 | 0.796 | 1.07
NCI-H358 | 0.741 | 0.567 | 0.6 | 0.594 | 0.682 | 0.202 | 0.209 | 0.211 | 0.212 | 0.263 | 0.496 | 0.415 | 0.373 | 0.531 | 0.464 | 0.478 | 0.364 | 0.436 | 0.338 | 0.325
NCI-H460 | 0.411 | 0.402 | 0.514 | 0.379 | 0.498 | 0.479 | 0.595 | 0.605 | 0.483 | 0.5 | 0.931 | 1.46 | 1.3 | 1.14 | 1.12 | 0.0293 | 0.0335 | 0.0318 | 0.0323 | 0.0338
NCI-H520 | 0.342 | 0.345 | 0.361 | 0.251 | 0.368 | 0.515 | 0.593 | 0.511 | 0.499 | 0.512 | 0.855 | 0.943 | 1.08 | 0.768 | 1.05 | 0.228 | 0.239 | 0.23 | 0.222 | 0.284
NCI-H596 | 0.739 | 0.663 | 0.739 | 0.719 | 0.705 | 1 | 1.04 | 1.09 | 1.1 | 1.08 | 1.07 | 1.13 | 1.09 | 1.09 | 1.09 | 1.12 | 1.09 | 1 | 0.93 | 1.04
NCI-H647 | 0.581 | 0.527 | 0.708 | 0.622 | 0.644 | 0.386 | 0.296 | 0.494 | 0.368 | 0.454 | 1.2 | 1.25 | 1.1 | 0.978 | 1.22 | 0.292 | 0.167 | 0.168 | 0.227 | 0.285
NCI-H661 | 0.724 | 0.753 | 0.741 | 0.698 | 0.834 | 0.558 | 0.654 | 0.547 | 0.57 | 0.557 | 0.484 | 0.431 | 0.491 | 0.567 | 0.469 | 0.901 | 0.924 | 0.9 | 0.998 | 0.952
NCI-H727 | 0.59 | 0.756 | 0.759 | 0.665 | 0.652 | 0.832 | 0.932 | 0.807 | 0.717 | 0.891 | 0.713 | 0.875 | 0.877 | 0.864 | 1.01 | 0.325 | 0.276 | 0.345 | 0.346 | 0.278
NCI-H838 | 0.869 | 0.712 | 0.806 | 0.756 | 0.783 | 0.483 | 0.484 | 0.497 | 0.47 | 0.517 | 1.06 | 1.16 | 0.914 | 0.967 | 1.26 | 0.247 | 0.33 | 0.334 | 0.24 | 0.246
NCI-H1355 | 0.756 | 0.769 | 0.729 | 0.723 | 0.77 | 0.341 | 0.35 | 0.376 | 0.347 | 0.431 | 0.908 | 1.1 | 1.04 | 1.13 | 1.07 | 0.822 | 0.73 | 0.748 | 0.747 | 0.659
NCI-H1395 | 0.51 | 0.446 | 0.432 | 0.435 | 0.545 | – | 0.683 | 0.757 | 0.737 | 0.745 | 0.95 | 1.19 | 0.999 | 1.06 | 0.897 | 0.8 | 0.76 | 0.838 | 0.609 | 0.586
NCI-H1437 | 0.677 | 0.623 | 0.62 | 0.611 | 0.629 | 0.58 | 0.602 | 0.558 | 0.584 | 0.571 | 0.798 | 0.764 | 0.854 | 0.771 | 0.882 | 1.12 | 1.1 | 1.07 | 1.16 | 1.08
NCI-H1650 | 0.876 | 0.712 | 0.797 | 0.91 | 0.89 | 0.428 | 0.416 | 0.389 | 0.517 | 0.417 | 0.7 | 0.817 | 0.74 | 0.921 | 0.79 | 0.195 | 0.194 | 0.192 | 0.203 | 0.236
NCI-H1651 | 0.194 | 0.19 | 0.198 | 0.175 | 0.206 | 0.588 | 0.623 | 0.678 | 0.491 | 0.584 | 0.836 | 0.979 | 1.1 | 0.815 | 0.822 | 0.941 | 0.965 | 1.03 | 0.745 | 1
